Experimental data published in patent US9884843B2 (Peloton Therapeutics, Inc., priority 2013, dated 2018).

target: HIF-2α HIS TAG-PASB Domain (Homo sapiens, UniProt Q99814); assay: biochemical; assay type: binding; settings: not given
Source text: The term “scintillation proximity assay” (SPA) refers to a homogenous assay in which light is emitted when a radiolabeled ligand is brought into close proximity to a radiosensitive bead. The assay typically contains a target protein that contains a tag (e.g., His Tag, Glutathione S-transferase Tag). The tag on the protein is used to bind the target protein to the scintillation bead. Radiolabeled ligand (e.g., labeled with tritium) that binds to the protein is now in close proximity to the bead, and when the raidolabel (e.g., tritium) decays, the high energy particle hits the bead resulting in the emission of light that is detected by a detector, such as photomultiplier tube or CCD camera. When unlabeled ligands or compounds that bind to the protein are used in the assay, they displace the radiolabeled ligand, resulting in loss of signal.
The total assay volume was about 100 μL in the following configuration: 2-μL compound in DMSO, 88 μL buffer with protein and probe and 10 μL of SPA beads. […] To each compound, 88 μL of the buffer solution was then added. […] The percent inhibition was determined and IC50 values were calculated using the Dotmatics system based on the following equation: % inhibition=[(high control−sample)/(high control−low control)]×100.

Chain of HIF-2α HIS TAG-PASB Domain (Q99814 whole entry, looked up, the tested form may be a part): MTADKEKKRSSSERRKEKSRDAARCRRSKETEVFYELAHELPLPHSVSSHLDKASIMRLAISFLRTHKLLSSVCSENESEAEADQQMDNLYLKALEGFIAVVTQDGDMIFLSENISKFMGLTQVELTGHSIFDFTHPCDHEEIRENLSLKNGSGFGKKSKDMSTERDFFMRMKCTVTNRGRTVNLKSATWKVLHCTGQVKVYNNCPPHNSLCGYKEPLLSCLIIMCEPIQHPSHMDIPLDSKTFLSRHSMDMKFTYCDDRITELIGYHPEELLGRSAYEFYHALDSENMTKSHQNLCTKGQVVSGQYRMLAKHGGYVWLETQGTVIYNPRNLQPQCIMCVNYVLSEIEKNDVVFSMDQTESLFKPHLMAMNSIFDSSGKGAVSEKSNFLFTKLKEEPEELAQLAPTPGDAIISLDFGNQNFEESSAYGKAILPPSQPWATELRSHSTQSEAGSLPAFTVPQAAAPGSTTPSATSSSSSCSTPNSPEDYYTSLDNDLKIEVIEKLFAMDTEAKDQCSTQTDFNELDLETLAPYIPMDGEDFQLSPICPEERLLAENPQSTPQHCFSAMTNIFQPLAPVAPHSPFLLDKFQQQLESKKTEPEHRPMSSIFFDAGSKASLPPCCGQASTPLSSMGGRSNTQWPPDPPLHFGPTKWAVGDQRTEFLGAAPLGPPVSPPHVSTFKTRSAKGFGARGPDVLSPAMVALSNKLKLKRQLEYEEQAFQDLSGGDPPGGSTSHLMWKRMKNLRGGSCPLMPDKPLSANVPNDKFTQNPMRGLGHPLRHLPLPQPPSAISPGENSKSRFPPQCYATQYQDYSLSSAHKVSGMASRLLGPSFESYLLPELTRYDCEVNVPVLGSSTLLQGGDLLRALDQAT

Compound | IC50 [µM]
COc1cc(F)cc(Oc2ccc3c(c2C#N)[C@@H](O)C(F)(F)S3(=O)=O)c1 [Compound 81, (R)-2,2-difluoro-5-(3-fluoro-5-methoxyphenoxy)-3-hydroxy-2,3-dihydrobenzo[b]thiophene-4-carbonitrile 1,1-dioxide] | 0.067

same assay, conditions: displacement of Compound 120 probe; mean; read-out: Mean SPA IC50

Compound | IC50 [µM]
N#Cc1cc(F)cc(Oc2ccc3c(c2Br)[C@@H](O)C(F)(F)S3(=O)=O)c1 [Compound 1, (R)-3-((4-bromo-2,2-difluoro-3-hydroxy-1,1-dioxido-2,3-dihydrobenzo[b]thiophen-5-yl)oxy)-5-fluorobenzonitrile] | 0.007
N#Cc1c(Oc2cc(F)cc(Cl)c2)ccc2c1[C@@H](O)CS2(=O)=O [Compound 2, (3R)-5-(3-Chloro-5-fluoro-phenoxy)-3-hydroxy-1,1-dioxo-2,3-dihydrobenzothiophene-4-carbonitrile] | 0.047
O=S1(=O)CCc2c1ccc(Oc1cc(F)cc(Cl)c1)c2Br [Compound 4, 4-Bromo-5-(3-chloro-5-fluorophenoxy)-2,3-dihydrobenzo[b]thiophene 1,1-dioxide] | 4.41
N#Cc1c(Oc2cc(F)cc(Cl)c2)ccc2c1CCS2(=O)=O [Compound 5, 5-(3-Chloro-5-fluorophenoxy)-2,3-dihydrobenzo[b]thiophene-4-carbonitrile 1,1-dioxide] | 4.86
O=C1c2c(ccc(Oc3cc(F)cc(Cl)c3)c2Br)S(=O)(=O)C1(F)F [Compound 8, 4-Bromo-5-(3-chloro-5-fluorophenoxy)-2,2-difluorobenzo[b]thiophen-3(2H)-one 1,1-dioxide] | 1.41
NC1c2c(ccc(Oc3cc(F)cc(F)c3)c2C(F)F)S(=O)(=O)C1F (stereo not shown) [Compound 20, 3-amino-4-(difluoromethyl)-5-(3,5-difluorophenoxy)-2-fluoro-2,3-dihydrobenzo[b]thiophene 1,1-dioxide] | 1.54
NC1CS(=O)(=O)c2ccc(Oc3cc(F)cc(F)c3)c(C(F)F)c21 (stereo not shown) [Compound 21] | 11.8
N#Cc1cc(F)cc(Oc2ccc3c(c2C(F)F)C(=N)C(F)S3(=O)=O)c1 (stereo not shown) [Compound 27, 3-((4-(difluoromethyl)-2-fluoro-3-imino-1,1-dioxido-2,3-dihydrobenzo[b]thiophen-5-yl)oxy)-5-fluorobenzonitrile] | 5.84
O=S1(=O)c2ccc(OC3CCOCC3)c(C(F)F)c2C(O)C1(F)F (stereo not shown) [Compound 54, 4-(Difluoromethyl)-2,2-difluoro-3-hydroxy-5-((tetrahydro-2H-pyran-4-yl)oxy)-2,3-dihydrobenzo[b]thiophene 1,1-dioxide] | 1.92
N#CN=S1(=O)c2ccc(Oc3cc(F)cc(F)c3)c(Cl)c2[C@@H](O)C1(F)F (stereo partly drawn) [Compound 66, N-((3R)-4-Chloro-5-(3,5-difluorophenoxy)-2,2-difluoro-3-hydroxy-1-oxido-2,3-dihydro-1λ^4-benzo[b]thiophen-1-ylidene)cyanamide] | 0.17
O=S1(=O)c2ccc(Oc3cncc(Cl)c3)c(Br)c2[C@@H](O)C1(F)F [Compound 75, (R)-4-bromo-5-((5-chloropyridin-3-yl)oxy)-2,2-difluoro-3-hydroxy-2,3-dihydrobenzo[b]thiophene 1,1-dioxide] | 0.12
O=S1(=O)c2ccc(Oc3cncc(F)c3)c(Br)c2[C@@H](O)C1(F)F [Compound 77, (R)-4-bromo-2,2-difluoro-5-((5-fluoropyridin-3-yl)oxy)-3-hydroxy-2,3-dihydrobenzo[b]thiophene 1,1-dioxide] | 0.31
Cc1cncc(Oc2ccc3c(c2Br)[C@@H](O)C(F)(F)S3(=O)=O)c1 [Compound 82, (R)-4-bromo-2,2-difluoro-3-hydroxy-5-((5-methylpyridin-3-yl)oxy)-2,3-dihydrobenzo[b]thiophene 1,1-dioxide] | 2.93
O=S1(=O)c2ccc(Oc3cncc(Cl)c3)c(Cl)c2[C@@H](O)C1(F)F [Compound 86, (R)-4-Chloro-5-((5-chloropyridin-3-yl)oxy)-2,2-difluoro-3-hydroxy-2,3-dihydrobenzo[b]thiophene 1,1-dioxide] | 0.38

same assay, conditions: unnumbered compounds listed by structure and name; read-out: IC50 value in SPA

Compound | IC50 [µM]
N#Cc1cc(F)cc(Oc2ccc3c(c2Cl)C(=O)C(F)(F)S3(=O)=O)c1 [3-(4-chloro-2,2-difluoro-1,1,3-trioxo-benzothiophen-5-yl)oxy-5-fluoro-benzonitrile] | 25 to 100
N#Cc1cccc(Oc2ccc3c(c2C(F)F)C(=O)C(F)(F)S3(=O)=O)c1 [3-[4-(difluoromethyl)-2,2-difluoro-1,1,3-trioxo-benzothiophen-5-yl]oxybenzonitrile] | 25 to 100
N#Cc1cc(F)cc(Oc2ccc3c(c2C#CCO)C(O)C(F)(F)S3(=O)=O)c1 (stereo not shown) [3-[[2,2-difluoro-3-hydroxy-4-(3-hydroxyprop-1-ynyl)-1,1-dioxo-3H-benzothiophen-5-yl]oxy]-5-fluoro-benzonitrile] | > 100
N#Cc1cc(F)cc(Oc2ccc3c(c2C(F)F)C(NCC(F)F)CS3(=O)=O)c1 (stereo not shown) [3-[[3-(2,2-difluoroethylamino)-4-(difluoromethyl)-1,1-dioxo-2,3-dihydrobenzothiophen-5-yl]oxy]-5-fluoro-benzonitrile] | > 100
N#CCNC1CS(=O)(=O)c2ccc(Oc3cc(F)cc(C#N)c3)c(C(F)F)c21 (stereo not shown) [3-[[3-(cyanomethylamino)-4-(difluoromethyl)-1,1-dioxo-2,3-dihydrobenzothiophen-5-yl]oxy]-5-fluoro-benzonitrile] | > 100
CO/C(=C/C(F)F)c1c(Oc2cc(F)cc(C#N)c2)ccc2c1C(O)C(F)(F)S2(=O)=O (stereo not shown) [3-[[4-[(E)-3,3-difluoro-1-methoxy-prop-1-enyl]-2,2-difluoro-3-hydroxy-1,1-dioxo-3H-benzothiophen-5-yl]oxy]-5-fluoro-benzonitrile] | 25 to 100
N#Cc1cc(F)cc(Oc2ccc3c(c2C(F)F)C(NCCC(=O)O)C(F)(F)S3(=O)=O)c1 (stereo not shown) [3-[[5-(3-cyano-5-fluoro-phenoxy)-4-(difluoromethyl)-2,2-difluoro-1,1-dioxo-3H-benzothiophen-3-yl]amino]propanoic acid] | > 100
N#Cc1cc(F)cc(Oc2ccc3c(c2CF)C(O)CS3(=O)=O)c1 (stereo not shown) [3-fluoro-5-[[4-(fluoromethyl)-3-hydroxy-1,1-dioxo-2,3-dihydrobenzothiophen-5-yl]oxy]benzonitrile] | 25 to 100
NC1c2c(ccc(OC3CCOCC3)c2C(F)F)S(=O)(=O)C1(F)F (stereo not shown) [4-(difluoromethyl)-2,2-difluoro-1,1-dioxo-5-tetrahydropyran-4-yloxy-3H-benzothiophen-3-amine] | 25 to 100
O=C1CS(=O)(=O)c2ccc(Oc3ccc(F)c(F)c3)c(C(F)F)c21 [4-(difluoromethyl)-5-(3,4-difluorophenoxy)-1,1-dioxo-benzothiophen-3-one] | > 100
O=C1c2c(ccc(Oc3ccc(F)c(F)c3)c2C(F)F)S(=O)(=O)C1(F)F [4-(difluoromethyl)-5-(3,4-difluorophenoxy)-2,2-difluoro-1,1-dioxo-benzothiophen-3-one] | > 100
O=C1CS(=O)(=O)c2ccc(Oc3cc(F)cc(F)c3)c(Br)c21 [4-bromo-5-(3,5-difluorophenoxy)-1,1-dioxo-benzothiophen-3-one] | > 100
N=S1(=O)CC(=O)c2c1ccc(Oc1cc(F)cc(F)c1)c2Br (stereo not shown) [4-bromo-5-(3,5-difluorophenoxy)-1-imino-1-oxo-benzothiophen-3-one] | > 100
O=S1(=O)c2ccc(Oc3cc(F)cc(Cl)c3)c(Br)c2C(O)C12CC2 (stereo not shown) [4-bromo-5-(3-chloro-5-fluoro-phenoxy)-1,1-dioxo-spiro[3H-benzothiophene-2,1′-cyclopropane]-3-ol] | 25 to 100
N#Cc1c(Oc2cc(F)cc(F)c2)ccc2c1C(O)CS2(=N)=O (stereo not shown) [5-(3,5-difluorophenoxy)-3-hydroxy-1-imino-2,3-dihydro-1H-1λ^4-benzo[b]thiophene-4-carbonitrile 1-oxide] | > 100
N#Cc1cc(Oc2ccc3c(c2C(F)F)C(=O)C(F)(F)S3(=O)=O)ccc1F [5-[4-(difluoromethyl)-2,2-difluoro-1,1,3-trioxo-benzothiophen-5-yl]oxy-2-fluoro-benzonitrile] | 25 to 100
N#Cc1cncc(Oc2ccc3c(c2C#N)[C@@H](O)CS3(=O)=O)c1 [5-[[(3R)-4-cyano-3-hydroxy-1,1-dioxo-2,3-dihydrobenzothiophen-5-yl]oxy]pyridine-3-carbonitrile] | 25 to 100
O=S1(=O)c2ccc(Oc3cc(F)cc(F)c3)c(Br)c2[C@@H](O)C1F (stereo partly drawn) [(3R)-4-bromo-5-(3,5-difluorophenoxy)-2-fluoro-1,1-dioxo-2,3-dihydrobenzothiophen-3-ol] | > 100
O=S1(=O)C[C@H](O)c2c1ccc(Oc1cncc(Cl)c1)c2Br [(3R)-4-bromo-5-[(5-chloro-3-pyridyl]oxy]-1,1-dioxo-2,3-dihydrobenzothiophen-3-ol] | > 100
O=S1(=O)C[C@H](O)c2c1ccc(Oc1cncc(F)c1)c2Br [(3R)-4-bromo-5-[(5-fluoro-3-pyridyl)oxy]-1,1-dioxo-2,3-dihydrobenzothiophen-3-ol] | > 100
N#Cc1c(Oc2cncc(Cl)c2)ccc2c1[C@@H](O)CS2(=O)=O [(3R)-5-[(5-chloro-3-pyridyl)oxy]-3-hydroxy-1,1-dioxo-2,3-dihydrobenzothiophene-4-carbonitrile] | 25 to 100
N#Cc1c(Oc2cncc(F)c2)ccc2c1[C@@H](O)CS2(=O)=O [(3R)-5-[(5-fluoro-3-pyridyl)oxy]-3-hydroxy-1,1-dioxo-2,3-dihydrobenzothiophene-4-carbonitrile] | 25 to 100
